In patent publication US20220401385A1, “Combination Therapy Based on PD-1 Signaling Inhibitors” (Kyoto University, priority 2019, published 2022):
Entries after “also recorded” stand apart in the source; their conditions may differ.

Key:
[1] = tested on: CD8+ T cells; assay: Flow cytometry of draining lymph node and tumor-infiltrating CD8+ T cells of treated MC38 mice; assay type: in vivo, C57BL/6 mice
Protocol: FIG. 1-1 a) CD8^+ T cells or CD3^+ T cells were isolated from mice, and 2×10^5 cells were stimulated with CD3/CD28 beads in 96-well U plates. After 24 hours and 48 hours, cells and culture supernatant were collected, followed by measurement of spermidine (SPD) concentration by mass spectrometry. […] Ten days after inoculation, PD-L1 antibody (2 mg/kg), PD-L1 antibody+SPD (2 mg/kg), or SPD alone was administered. Subsequently, PD-L1 antibody was administered 4 times at a regular interval of 5 days, and SPD was administered 8 times at a regular interval of 3 days. Tumor growth curve and survival curve are shown. c) Draining lymph nodes (DLNs) of mice were isolated 13 days after tumor inoculation, and stained with antibodies to CD8, CD44 and CD62L. The number of cells in draining lymph node (cells/DLN) in each treatment group is shown at the left side. After being gated, CD8^+ T cells were fractionated with CD44 and CD62L into P1 to P4 cell populations. Percentages and cell numbers of P1 to P4 in each treatment group are shown. d) Tumor was isolated 13 days after tumor inoculation and treated with collagenase. Percentages and numbers per mg tumor of tumor-infiltrating CD8^+ CD45.2^+ cells are shown. For statistical analysis, ANOVA was used. * p<0.05, ** p<0.01, *** p<0.001, **** p<0.0001.
FIG. 2-1 a) Treated mice were analyzed for draining lymph nodes and the inside of tumor. Briefly, draining lymph nodes of mice were isolated 13 days after tumor inoculation, and stained with antibodies to CD8 and Sca-1. FACS diagram and percentages of Sca-1^+ cells in CD8^+ T cells are shown. b) CD8^+ T cells in isolated draining lymph nodes were stimulated with CD3/CD28 antibody beads. After 24 hours, cell proliferation was examined by means of ^3H uptake. At the same time, IFN-γ concentration in culture supernatant was measured. c) Tumor from the same mice as described above was treated with collagenase. Then, expression rates of PD-1 and Tim3 in tumor-infiltrating CD8^+ T cells were analyzed. d) Oxygen consumption rate (OCR) and extracellular acidification rate (ECAR) of draining lymph node CD8^+ T cells were measured with a Seahorse analyzer (N=3 wells). For statistical analysis, ANOVA was used. * p<0.05, ** p<0.01, *** p<0.001, **** p<0.0001.
For analyzing draining lymph nodes, cells from axillary, brachial, and inguinal lymph nodes on the right side of tumor-inoculated mice were harvested and mixed. Averaged cell numbers per one lymph node were used as absolute cell numbers. For tumor analysis, tumor tissues were minced into 2- to 3-mm pieces with scissors and digested with collagenase type IV (Thermo Fisher Scientific) using a gentle MACS Dissociator (Miltenyi Biotec). The numbers of tumor cells per mg were used as absolute numbers.
The following antibodies recognizing the indicated antigens were used: CD44 (1M7), CD45.2 (104), CD45.1 (A20), CD8 (53-6.7), CD62L (MEL-14) and Sca-1 (D7) from BioLegend. All flow cytometry experiments were performed on FACS Canto II (BD Biosciences) and analyzed using FlowJo software (FLOWJO, LLC). Apoptosis assay was performed with PI (Sigma) and Annexin (BioLegend) following the instructions on the kits.

[2] = tested on: CD44 low CD8+ T cells; assay: PI and Annexin apoptosis assay, CD44 low cells; assay type: cell-based, mice; details: in the presence of SPD 0.2 μM
Protocol: FIG. 4 CD8^+ T cells were isolated from the spleen of mice without tumor inoculation, and further isolated into CD44^+ (CD44 high) and CD44^− (CD44 low) cell populations. a) CD44 low cells were simulated with CD3/CD28 antibody beads and SPD (0.2 μM). After 30 minutes, 1 hour, 2 hours and 72 hours, OCR was measured with a Seahorse analyzer. b) At the same time, total ATP production and glycolytic pathway-derived or mitochondrial activity-derived ATP production were calculated at 30-minute, 1-hour and 2-hour. c) CD44 low cells (2×10^5 cells) were stimulated with CD3/CD28 antibody beads and SPD (0.2 μM). After 24 hours, cell proliferation was examined by means of 3H uptake. d) Spare respiratory capacity (SRC) was calculated from the OCR measurement after 72 hours in a), and results with and without SPD were compared. e) CD44 low cells were stimulated with CD3/CD28 antibody beads and SPD (0.2 μM). After 24 hours, frequencies between apoptotic and viable cells were calculated by PI and Annexin staining. f-j) CD44 high cells were analyzed under the same conditions and by the same methods as described in a-e) above. […] All flow cytometry experiments were performed on FACS Canto II (BD Biosciences) and analyzed using FlowJo software (FLOWJO, LLC). […]

[3] = tested on: MethA or CT26 cells; assay: MethA or CT26 tumor model; assay type: in vivo, BALB/c mice; details: BALB/c mouse, MethA (SPD 1 mg/kg) or CT26 (SPD 4 mg/kg), with PD-L1 antibody 2 mg/kg
Protocol: FIG. 2-2 a-b) MethA or CT26 cells were intradermally inoculated into BALB/c mice. Ten days after inoculation, PD-L1 antibody (2 mg/kg), PD-L1 antibody+SPD (1 mg/kg for Meth A, 4 mg/kg for CT26) or SPD alone was administered. c) LLC cells were intradermally inoculated into C57BL/6 mice. Ten days after inoculation, mice were treated in the same manner as described in a-b) above. SPD was administered at 4 mg/kg. d) MC38 cells were inoculated into C57BL/6 Rag2^−/− mice. Ten days after inoculation, mice were treated in the same manner as described in a-b) above. SPD was administered at 5 mg/kg. Tumor growth curve and survival curve are shown.

[4] = SPD + PD-1 inhibitory antibody, 13 days after tumor inoculation
[5] = combination therapy, 13 days after tumor inoculation

SMILES: NCCCCNCCCN [SPD, spermidine]
- absolute number of effector T cells (P3) in draining lymph nodes [1, 4]: increase
- cell number of the draining lymph nodes [1, 4]: increase
- frequency of effector T cells (P3) in draining lymph nodes [1, 4]: increase
- expression of Sca-1 (activation marker) in draining lymph node CD8+ T cells ([1]; combination therapy using SPD): enhanced
- frequency of exhausted CD8+ T cells (CD8+ PD-1+ Tim-3+), tumor-infiltrating ([1]; combination therapy using SPD): decreased significantly
- frequency of tumor-infiltrating CD8+ T cells [1, 5]: increased
- number of tumor-infiltrating CD8+ T cells [1, 5]: increased
- apoptotic cells [2]: decreased
- viable cells [2]: increased; also recorded: significantly high
- effect of SPD for enhancing the antitumor immunity of PD-1 inhibition [3]: confirmed
